Test results reported in US20120095019A1 (priority 2010, published 2012).
“And” between values parts separate entries of the source, which are not always exact repeats. Equal values may be shown once. “Also recorded” adds a separate entry of the source.

Experiments:
[1] = 2-way crossover study of single-dose betrixaban alone and following 5 days of ketoconazole in healthy subjects (plasma/urine PK, safety); format: in vivo, human; conditions: for Cmax: ketoconazole Cmax
Excerpt: Blood and urine samples were obtained at specific time intervals after dosing for pharmacokinetic evaluations.
For each subject, the total duration of the study was up to 11 weeks (4 weeks predose, 1 week in the study unit on 2 occasions separated by a 12- to 14-day washout period, and 3 weeks after the last dose until the termination visit).
Safety was monitored by adverse event monitoring, clinical laboratory testing (hematology, serum chemistry, and urinalysis), vital sign measurements (oral temperature, respiratory rate, pulse rate, and systolic and diastolic blood pressure), electrocardiograms, and physical examinations.

[2] = 3-period crossover study of betrixaban and digoxin alone and in combination for 7 days in healthy subjects; format: in vivo, human
Excerpt: For each period, subjects reported to the clinical research unit on the day prior to Day 1 and remained there until Day 8 (at least until the last blood sample collection). The total duration of the study for each subject was 14 weeks: up to 4 weeks predose, approximately 1 week in the study unit on 3 occasions (with each treatment period separated by an approximate 2-week washout [i.e., 12 to 14 days]), and up to 3 weeks after the last dose until the Termination Visit. Serial blood samples and interval urine collections were obtained over the last dosing interval (Day 7 to 8) during each study period. Routine safety laboratory data was obtained at baseline during and after drug administration; additional safety laboratory and clinical data were collected.
All doses were taken under fasting conditions (no food starting from the midnight before dosing and continuing until 2 hours postdose).
Safety assessments included electrocardiogram (ECG) intervals, vital signs, laboratory parameters, and adverse events (AEs).
Mean and individual concentration-versus-time curves were plotted. […]
The 90% confidence intervals (CIs) for the difference in least squares means (test-reference, where test=drugs in combination and reference=drugs alone) was calculated for each parameter. […]

Row | effect of co-administration of betrixaban on digoxin PK ([2]; 7 days) | Tmax ([2]; human, plasma, oral, digoxin median tmax, second value of pair (digoxin alone by order)) [h] | SMILES | ketoconazole CL/F, mean (SD) ([1]; Day 1) | ketoconazole trough concentration, least squares geometric mean ([1]; Day 1 12 hours) [ng/mL] | ketoconazole trough concentration, least squares geometric mean ([1]; Day 1 predose) [ng/mL] | ketoconazole CL/F, mean (SD) ([1]; Day-1) | ketoconazole trough concentration, least squares geometric mean ([1]; Day-1 predose) [ng/mL] | increased exposure of ketoconazole [Cmax and AUC(0-12)] when given with betrixaban ([1]; human, in vivo) | Tmax ([1]; human, plasma, oral) [h] | Tmax ([1]; human, plasma, oral, 200 mg) [h] | AUC(0-t) ([1]; human, plasma, oral, 200 mg, ketoconazole AUC(0-12), geometric LS mean, Treatment R: ketoconazole 200 mg alone) [ng·h/mL] | Cmax ([1]; human, plasma, oral, 200 mg, geometric LS mean, Treatment R: ketoconazole 200 mg alone) [ng/mL] | Cmax ([1]; human, plasma, oral, 200 mg, mean (SD), Day-1) [ng/mL] | AUC(0-t) ([1]; human, plasma, oral, 200 mg, ketoconazole plasma AUC(0-12), mean (SD), Day-1) [ng·h/mL] | concentration at 12 h ([1]; human, plasma, oral, 200 mg, Day-1 12 hours) [ng/mL] | AUC(0-t) ([1]; human, plasma, oral, ketoconazole AUC(0-12), geometric LS mean, Treatment T: ketoconazole 200 mg co-administered with 40-mg betrixaban) [ng·h/mL] | Cmax ([1]; human, plasma, oral, geometric LS mean, Treatment T: ketoconazole 200 mg co-administered with 40-mg betrixaban) [ng/mL] | Cmax ([1]; human, plasma, oral, mean (SD), Day 1 (day of betrixaban administration)) [ng/mL]
1 |  |  | CC(=O)N1CCN(c2ccc(OCC3COC(Cn4ccnc4)(c4ccc(Cl)cc4Cl)O3)cc2)CC1 (stereo not drawn) [ketoconazole] | 5.717 (2.373) L/h | 769 | 1030 | 7.954 (7.110) L/h | 1250 | 21-22% and ~20% | 2 | 2 | 30900 | 5260 | 5900 | 35300 | 697 | 37300 | 6420 | 6620
2 | no impact; also recorded: no effect | 1.01 | C[C@H]1O[C@@H](O[C@H]2[C@@H](O)C[C@H](O[C@H]3[C@@H](O)C[C@H](O[C@H]4CC[C@@]5(C)[C@H](CC[C@@H]6[C@@H]5C[C@@H](O)[C@]5(C)[C@@H](C7=CC(=O)OC7)CC[C@]65O)C4)O[C@@H]3C)O[C@@H]2C)C[C@H](O)[C@@H]1O [digoxin] |  |  |  |  |  |  |  |  |  |  |  |  |  |  |  | 
